Reference: ChEMBL document CHEMBL5150004, “Targeting Rearranged during Transfection in Cancer: A Perspective on Small-Molecule Inhibitors and Their Clinical Development” (J Med Chem, 2021)
Values belong to the molecule of their own block, whether it stands above or below them.

What was measured:
[1] = target: Vascular endothelial growth factor receptor 2 (Homo sapiens, UniProt P35968); test: Inhibition of recombinant VEGFR2 (unknown origin) incubated for 120 mins by Perkin Elmer electrophoretic mobility shift platform method
[2] = Inhibition of RET G810R (unknown origin); parameters: species or system Homo sapiens
[3] = Inhibition of recombinant RET V804M (unknown origin) incubated for 120 mins by Perkin Elmer electrophoretic mobility shift platform method; parameters: species or system Homo sapiens
[4] = Inhibition of human recombinant RET Y719F using Biotin-EGPWLEEEEEAYGWMDF as substrate by TR-FRET assay
NB1 = test: cells; conditions: Homo sapiens
[5] = Cytotoxicity against human TT-1 cells expressing RET incubated for 72 hrs by celltitre blue assay; assay type: functional
Hs-578T = test: Cytotoxicity against human Hs-578T cells expressing BRAF incubated for 72 hrs by celltitre blue assay; assay type: functional
LNCaP = test: Cytotoxicity against human LNCaP cells expressing BRAF incubated for 72 hrs by celltitre blue assay; assay type: functional
COLO 205 = test: Cytotoxicity against human COLO 205 cells expressing BRAF V600E mutant incubated for 72 hrs by celltitre blue assay; assay type: functional
A-375 = test: Cytotoxicity against human A-375 cells expressing BRAF V600E mutant incubated for 72 hrs by celltitre blue assay; assay type: functional
HeLa = test: Cytotoxicity against human HeLa cells expressing CRAF incubated for 72 hrs by celltitre blue assay; assay type: functional
K562 = test: Cytotoxicity against human K562 cells expressing BCR-ABL incubated for 72 hrs by celltitre blue assay; assay type: functional
[6] = Cytotoxicity against HUVEC expressing VEGFR2 incubated for 72 hrs by celltitre blue assay; assay type: toxicity, cell-based; conditions: human
[7] = Cytotoxicity against HUVEC expressing FLT-1 incubated for 72 hrs by celltitre blue assay; assay type: toxicity, cell-based; conditions: human
A-431 = test: Cytotoxicity against human A-431 cells expressing C-KIT incubated for 72 hrs by celltitre blue assay; assay type: functional
[8] = target: T1, Tyrosine-protein kinase ABL1 (Homo sapiens, UniProt P00519); test: Binding affinity to ABL (unknown origin) assessed as dissociation constant measured by ambit kinomescan assay
[9] = target: RAF proto-oncogene serine/threonine-protein kinase (Homo sapiens, UniProt P04049); test: Inhibition of CRAF (unknown origin) by kinomescan assay
[10] = target: T1, Tyrosine-protein kinase ABL1; test: Inhibition of ABL (unknown origin) by kinomescan assay
[11] = Inhibition of C-KIT (unknown origin) by kinomescan assay; parameters: species or system Homo sapiens
[12] = Inhibition of RET V804M (unknown origin); parameters: species or system Homo sapiens
[13] = Inhibition of p38 (unknown origin); parameters: species or system Homo sapiens
[14] = target: Proto-oncogene tyrosine-protein kinase receptor Ret (Homo sapiens) (UniProt P07949); conditions: NIH3T3
Sequence of Proto-oncogene tyrosine-protein kinase receptor Ret (Homo sapiens) (P07949 whole entry): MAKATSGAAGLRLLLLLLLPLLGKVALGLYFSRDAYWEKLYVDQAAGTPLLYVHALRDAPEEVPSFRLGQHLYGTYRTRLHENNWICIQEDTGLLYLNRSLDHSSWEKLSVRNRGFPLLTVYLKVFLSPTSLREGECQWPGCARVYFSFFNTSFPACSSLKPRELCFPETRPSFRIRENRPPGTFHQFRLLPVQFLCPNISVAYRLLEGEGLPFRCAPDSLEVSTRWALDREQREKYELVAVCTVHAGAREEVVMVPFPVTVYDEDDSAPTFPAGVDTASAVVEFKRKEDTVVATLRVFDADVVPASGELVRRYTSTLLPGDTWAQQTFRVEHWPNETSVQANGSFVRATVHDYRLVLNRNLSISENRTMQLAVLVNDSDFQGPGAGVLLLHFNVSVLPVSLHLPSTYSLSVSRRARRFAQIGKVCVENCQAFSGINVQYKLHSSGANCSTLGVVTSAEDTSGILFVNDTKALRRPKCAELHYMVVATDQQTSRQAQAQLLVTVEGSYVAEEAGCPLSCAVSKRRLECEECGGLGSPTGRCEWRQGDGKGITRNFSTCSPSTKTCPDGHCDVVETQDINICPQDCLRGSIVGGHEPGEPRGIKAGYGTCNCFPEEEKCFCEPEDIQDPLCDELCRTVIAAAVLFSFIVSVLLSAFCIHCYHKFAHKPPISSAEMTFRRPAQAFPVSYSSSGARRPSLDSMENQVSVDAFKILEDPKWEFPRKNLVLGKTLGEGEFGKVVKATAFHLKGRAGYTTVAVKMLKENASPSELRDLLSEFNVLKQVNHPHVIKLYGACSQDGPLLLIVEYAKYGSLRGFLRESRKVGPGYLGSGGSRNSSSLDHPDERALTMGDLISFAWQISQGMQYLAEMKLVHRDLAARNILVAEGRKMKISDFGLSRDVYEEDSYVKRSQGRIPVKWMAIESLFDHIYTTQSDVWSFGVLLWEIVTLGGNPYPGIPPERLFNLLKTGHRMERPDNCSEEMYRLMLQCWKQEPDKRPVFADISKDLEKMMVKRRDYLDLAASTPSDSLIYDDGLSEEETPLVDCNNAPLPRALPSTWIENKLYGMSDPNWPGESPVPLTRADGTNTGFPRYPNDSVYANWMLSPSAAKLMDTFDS

T1 sequence (P00519 whole entry): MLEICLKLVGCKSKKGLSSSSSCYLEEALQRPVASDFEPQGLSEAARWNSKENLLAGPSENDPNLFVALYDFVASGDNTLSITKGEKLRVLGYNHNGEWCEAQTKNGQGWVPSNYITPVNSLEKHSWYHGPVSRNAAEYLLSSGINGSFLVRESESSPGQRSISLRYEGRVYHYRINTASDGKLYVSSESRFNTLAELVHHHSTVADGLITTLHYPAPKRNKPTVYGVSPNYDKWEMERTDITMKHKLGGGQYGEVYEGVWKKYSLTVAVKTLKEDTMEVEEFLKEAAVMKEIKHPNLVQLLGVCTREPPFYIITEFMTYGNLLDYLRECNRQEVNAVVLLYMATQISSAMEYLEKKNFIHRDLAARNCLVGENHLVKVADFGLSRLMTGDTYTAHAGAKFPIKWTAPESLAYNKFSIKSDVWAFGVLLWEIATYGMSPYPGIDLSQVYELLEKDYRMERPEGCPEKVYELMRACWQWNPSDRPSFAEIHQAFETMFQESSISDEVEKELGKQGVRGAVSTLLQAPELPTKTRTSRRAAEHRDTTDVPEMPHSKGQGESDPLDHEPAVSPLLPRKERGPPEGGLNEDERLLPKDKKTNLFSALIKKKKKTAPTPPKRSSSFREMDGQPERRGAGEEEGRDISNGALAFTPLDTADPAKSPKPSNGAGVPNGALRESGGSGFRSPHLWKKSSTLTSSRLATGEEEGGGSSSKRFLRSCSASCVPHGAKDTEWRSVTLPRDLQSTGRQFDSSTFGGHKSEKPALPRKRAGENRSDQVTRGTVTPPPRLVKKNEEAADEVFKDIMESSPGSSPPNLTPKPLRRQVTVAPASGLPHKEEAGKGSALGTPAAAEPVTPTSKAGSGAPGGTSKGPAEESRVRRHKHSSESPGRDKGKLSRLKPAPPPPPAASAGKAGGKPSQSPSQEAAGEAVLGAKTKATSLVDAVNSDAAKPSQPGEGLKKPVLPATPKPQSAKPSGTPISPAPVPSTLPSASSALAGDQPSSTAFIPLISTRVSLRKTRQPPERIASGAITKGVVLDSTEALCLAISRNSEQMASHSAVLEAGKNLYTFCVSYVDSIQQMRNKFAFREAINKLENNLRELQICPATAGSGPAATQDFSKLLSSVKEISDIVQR
Sequence of RAF proto-oncogene serine/threonine-protein kinase (P04049 whole entry): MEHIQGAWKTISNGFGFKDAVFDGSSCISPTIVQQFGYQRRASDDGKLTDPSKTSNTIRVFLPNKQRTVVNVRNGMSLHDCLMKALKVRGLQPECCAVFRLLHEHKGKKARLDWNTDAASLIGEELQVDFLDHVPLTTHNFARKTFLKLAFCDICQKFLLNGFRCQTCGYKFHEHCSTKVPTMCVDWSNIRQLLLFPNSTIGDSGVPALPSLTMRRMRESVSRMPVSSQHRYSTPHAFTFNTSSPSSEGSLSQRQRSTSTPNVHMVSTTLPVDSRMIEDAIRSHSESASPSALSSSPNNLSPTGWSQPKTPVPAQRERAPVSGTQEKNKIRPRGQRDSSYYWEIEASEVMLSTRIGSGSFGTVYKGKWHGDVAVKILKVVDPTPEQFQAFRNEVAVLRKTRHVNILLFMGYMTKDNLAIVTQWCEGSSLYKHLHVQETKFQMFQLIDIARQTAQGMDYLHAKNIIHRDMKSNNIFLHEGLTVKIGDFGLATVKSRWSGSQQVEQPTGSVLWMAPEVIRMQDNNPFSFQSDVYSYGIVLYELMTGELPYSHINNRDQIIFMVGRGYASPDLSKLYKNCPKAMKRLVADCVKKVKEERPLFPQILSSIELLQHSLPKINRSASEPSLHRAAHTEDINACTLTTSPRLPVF
Sequence of Vascular endothelial growth factor receptor 2 (P35968 whole entry): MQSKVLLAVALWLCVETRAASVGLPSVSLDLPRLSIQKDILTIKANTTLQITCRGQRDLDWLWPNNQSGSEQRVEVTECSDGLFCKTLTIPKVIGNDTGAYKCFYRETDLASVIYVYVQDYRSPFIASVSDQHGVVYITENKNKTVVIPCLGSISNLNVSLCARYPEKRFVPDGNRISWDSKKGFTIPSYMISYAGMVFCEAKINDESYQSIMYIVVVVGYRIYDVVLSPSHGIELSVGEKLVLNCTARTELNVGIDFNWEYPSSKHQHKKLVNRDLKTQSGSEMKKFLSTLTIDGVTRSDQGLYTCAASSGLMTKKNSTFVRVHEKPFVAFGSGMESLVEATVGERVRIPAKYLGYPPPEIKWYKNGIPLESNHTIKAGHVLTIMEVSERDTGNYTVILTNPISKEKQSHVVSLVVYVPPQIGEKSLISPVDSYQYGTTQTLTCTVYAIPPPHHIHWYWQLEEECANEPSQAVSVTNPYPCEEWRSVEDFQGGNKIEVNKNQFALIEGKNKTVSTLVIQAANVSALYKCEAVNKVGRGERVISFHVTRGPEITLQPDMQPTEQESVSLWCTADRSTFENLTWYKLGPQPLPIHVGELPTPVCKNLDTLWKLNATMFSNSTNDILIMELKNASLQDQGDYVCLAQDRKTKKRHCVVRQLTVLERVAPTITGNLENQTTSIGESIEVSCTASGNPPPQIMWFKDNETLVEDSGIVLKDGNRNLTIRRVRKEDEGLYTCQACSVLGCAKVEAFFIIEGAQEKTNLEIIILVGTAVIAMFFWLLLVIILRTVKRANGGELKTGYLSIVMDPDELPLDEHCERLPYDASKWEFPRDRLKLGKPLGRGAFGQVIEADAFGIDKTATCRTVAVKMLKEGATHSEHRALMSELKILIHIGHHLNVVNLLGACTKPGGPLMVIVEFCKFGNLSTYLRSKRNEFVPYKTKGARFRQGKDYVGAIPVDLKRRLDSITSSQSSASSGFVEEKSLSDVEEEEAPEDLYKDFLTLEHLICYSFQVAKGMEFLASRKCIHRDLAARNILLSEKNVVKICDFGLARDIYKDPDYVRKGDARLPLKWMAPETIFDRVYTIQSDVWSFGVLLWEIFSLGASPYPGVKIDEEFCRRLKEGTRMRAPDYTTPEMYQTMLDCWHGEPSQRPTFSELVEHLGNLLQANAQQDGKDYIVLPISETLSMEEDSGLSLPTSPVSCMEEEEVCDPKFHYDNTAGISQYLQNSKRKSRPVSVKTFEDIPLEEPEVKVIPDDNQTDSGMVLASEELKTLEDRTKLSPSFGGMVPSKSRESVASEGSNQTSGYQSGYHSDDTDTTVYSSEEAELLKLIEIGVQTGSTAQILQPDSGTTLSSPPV

Compound: CCc1cc2c(cc1N1CCC(N3CCOCC3)CC1)C(C)(C)c1[nH]c3cc(C#N)ccc3c1C2=O [ALECTINIB]
- IC50 [4]: 14 nM
- IC50 (NB1): 4.5 nM

Compound: COc1cc2ncnc(Oc3cccc(NC(=O)Nc4cc(C(C)(C)C(F)(F)F)on4)c3)c2cc1OC [CEP-32496]
- GI50 [5]: 21 nM
- GI50 (Hs-578T): 2740 nM
- GI50 (LNCaP): 6630 nM
- GI50 (COLO 205): 60 nM
- GI50 (A-375): 84 nM
- GI50 (HeLa): ≥ 3000 nM
- GI50 (K562): 70 nM
- GI50 at 72 h [6]: ≥ 700 nM
- GI50 at 72 h [7]: ≥ 1000 nM
- GI50 (A-431): 1000 nM
- Kd [8]: 2.8 nM
- IC50 [9]: 146 nM
- IC50 [10]: 6 nM
- IC50 [11]: 1 nM

Compound: CNC(=O)c1cc(Oc2ccc(NC(=O)Nc3ccc(Cl)c(C(F)(F)F)c3)cc2)ccn1 [SORAFENIB]
- IC50 [12]: 7.9 nM
- IC50 [13]: 38 nM
- GI50 [14]: 47 nM

More lines, now with the values ahead:

- IC50 [1]: 35 nM
- IC50 [2]: > 500 nM
Compound: COC1(C(=O)N[C@@H](C)c2ccc(-n3cc(F)cn3)nc2)CCC(c2nc(C)cc(Nc3cc(C)[nH]n3)n2)CC1 (some centres undefined)

- IC50 [3]: 0.8 nM
- IC50 [2]: > 500 nM
Compound: COc1ccc(CN2C3CC2CN(c2ccc(-c4cc(OCC(C)(C)O)cn5ncc(C#N)c45)cn2)C3)cn1 [SELPERCATINIB]

- IC50 [2]: 17 nM
Compound: C[C@H]1CNC(=O)c2cnn3cc4c(nc23)N(Cc2cc(F)cnc2O1)[C@@H]1CCC[C@@H]1O4 [ENBEZOTINIB]
